# Assay results reported in PubChem BioAssay AID1259407 (Chemical Carcinogenesis Research Information System (CCRIS), 2018).
# Active and inactive are the calls of the source. How the calls were made is not given here.
# System: CCRIS mutagenicity, Ames/micronucleus/aberration tests
# Test: CCRIS mutagenicity studies
structure (smiles),measurement,setting,value
CC(=O)Nc1ccc(O)cc1,mutagenic call,"End Point: IN VITRO MICRONUCLEUS, Test System: CHL/IU CELLS, Metabolic Activation: NONE",active; positive
same,mutagenic call,"End Point: IN VITRO MICRONUCLEUS, Test System: RAT KIDNEY FIBROBLAST NRK-49F, Metabolic Activation: NONE",active; positive
same,mutagenic call,"Test System: AMES SALMONELLA TYPHIMURIUM, Strain/Indicator: TA97, Metabolic Activation: NONE, Method: STANDARD PLATE",inactive; negative
same,mutagenic call,"Test System: AMES SALMONELLA TYPHIMURIUM, Strain/Indicator: TA97, Metabolic Activation: RAT, LIVER, S-9, AROCLOR 1254, Method: STANDARD PLATE",inactive; negative
same,mutagenic call,"Test System: AMES SALMONELLA TYPHIMURIUM, Strain/Indicator: TA98, Metabolic Activation: GUINEA PIG, LIVER, S-9, PCB, Method: PREINCUBATION",inactive; negative
same,mutagenic call,"Test System: AMES SALMONELLA TYPHIMURIUM, Strain/Indicator: TA98, Metabolic Activation: HAMSTER, LIVER, S-9, AROCLOR 1254 (10%), Method: PREINCUBATION",inactive; negative
same,mutagenic call,"Test System: AMES SALMONELLA TYPHIMURIUM, Strain/Indicator: TA98, Metabolic Activation: HAMSTER, LIVER, S-9, AROCLOR 1254, Method: STANDARD PLATE",inactive; negative
same,mutagenic call,"Test System: AMES SALMONELLA TYPHIMURIUM, Strain/Indicator: TA98, Metabolic Activation: HAMSTER, LIVER, S-9, PCB, Method: PREINCUBATION",inactive; negative
same,mutagenic call,"Test System: AMES SALMONELLA TYPHIMURIUM, Strain/Indicator: TA98, Metabolic Activation: MOUSE, LIVER, S-9, AROCLOR 1254, Method: STANDARD PLATE",inactive; negative
same,mutagenic call,"Test System: AMES SALMONELLA TYPHIMURIUM, Strain/Indicator: TA98, Metabolic Activation: MOUSE, LIVER, S-9, PCB, Method: PREINCUBATION",inactive; negative
same,mutagenic call,"Test System: AMES SALMONELLA TYPHIMURIUM, Strain/Indicator: TA98, Metabolic Activation: NONE, Method: PREINCUBATION",inactive; negative
same,mutagenic call,"Test System: AMES SALMONELLA TYPHIMURIUM, Strain/Indicator: TA98, Metabolic Activation: NONE, Method: STANDARD PLATE",inactive; negative
same,mutagenic call,"Test System: AMES SALMONELLA TYPHIMURIUM, Strain/Indicator: TA98, Metabolic Activation: RAT, LIVER, S-9, AROCLOR 1254 (10%), Method: PREINCUBATION",inactive; negative
same,mutagenic call,"Test System: AMES SALMONELLA TYPHIMURIUM, Strain/Indicator: TA98, Metabolic Activation: RAT, LIVER, S-9, AROCLOR 1254, Method: STANDARD PLATE",inactive; negative
same,mutagenic call,"Test System: AMES SALMONELLA TYPHIMURIUM, Strain/Indicator: TA98, Metabolic Activation: RAT, LIVER, S-9, ETHANOL, Method: STANDARD PLATE",inactive; negative
same,mutagenic call,"Test System: AMES SALMONELLA TYPHIMURIUM, Strain/Indicator: TA98, Metabolic Activation: RAT, LIVER, S-9, PCB, Method: PREINCUBATION",inactive; negative
same,mutagenic call,"Test System: AMES SALMONELLA TYPHIMURIUM, Strain/Indicator: TA98, Metabolic Activation: RAT, LIVER, S-9, PYRAZOLE, Method: STANDARD PLATE",inactive; negative
same,mutagenic call,"Test System: AMES SALMONELLA TYPHIMURIUM, Strain/Indicator: TA100, Metabolic Activation: GUINEA PIG, LIVER, S-9, PCB, Method: PREINCUBATION",inactive; negative
same,mutagenic call,"Test System: AMES SALMONELLA TYPHIMURIUM, Strain/Indicator: TA100, Metabolic Activation: HAMSTER, LIVER, S-9, AROCLOR 1254 (10%), Method: PREINCUBATION",inactive; negative
same,mutagenic call,"Test System: AMES SALMONELLA TYPHIMURIUM, Strain/Indicator: TA100, Metabolic Activation: HAMSTER, LIVER, S-9, AROCLOR 1254, Method: STANDARD PLATE",inactive; negative
same,mutagenic call,"Test System: AMES SALMONELLA TYPHIMURIUM, Strain/Indicator: TA100, Metabolic Activation: HAMSTER, LIVER, S-9, PCB, Method: PREINCUBATION",active; positive
same,mutagenic call,"Test System: AMES SALMONELLA TYPHIMURIUM, Strain/Indicator: TA100, Metabolic Activation: MOUSE, LIVER, S-9, AROCLOR 1254, Method: STANDARD PLATE",inactive; negative
same,mutagenic call,"Test System: AMES SALMONELLA TYPHIMURIUM, Strain/Indicator: TA100, Metabolic Activation: MOUSE, LIVER, S-9, PCB, Method: PREINCUBATION",inactive; negative
same,mutagenic call,"Test System: AMES SALMONELLA TYPHIMURIUM, Strain/Indicator: TA100, Metabolic Activation: NONE, Method: PREINCUBATION",inactive; negative
same,mutagenic call,"Test System: AMES SALMONELLA TYPHIMURIUM, Strain/Indicator: TA100, Metabolic Activation: NONE, Method: STANDARD PLATE",inactive; negative
same,mutagenic call,"Test System: AMES SALMONELLA TYPHIMURIUM, Strain/Indicator: TA100, Metabolic Activation: RAT, LIVER, S-9, AROCLOR 1254 (10%), Method: PREINCUBATION",inactive; negative
same,mutagenic call,"Test System: AMES SALMONELLA TYPHIMURIUM, Strain/Indicator: TA100, Metabolic Activation: RAT, LIVER, S-9, AROCLOR 1254, Method: STANDARD PLATE",inactive; negative
same,mutagenic call,"Test System: AMES SALMONELLA TYPHIMURIUM, Strain/Indicator: TA100, Metabolic Activation: RAT, LIVER, S-9, ETHANOL, Method: STANDARD PLATE",inactive; negative
same,mutagenic call,"Test System: AMES SALMONELLA TYPHIMURIUM, Strain/Indicator: TA100, Metabolic Activation: RAT, LIVER, S-9, PCB, Method: PREINCUBATION",inactive; negative
same,mutagenic call,"Test System: AMES SALMONELLA TYPHIMURIUM, Strain/Indicator: TA100, Metabolic Activation: RAT, LIVER, S-9, PYRAZOLE, Method: STANDARD PLATE",inactive; negative
same,mutagenic call,"Test System: AMES SALMONELLA TYPHIMURIUM, Strain/Indicator: TA102, Metabolic Activation: RAT, LIVER, S-9, ETHANOL, Method: STANDARD PLATE",inactive; negative
same,mutagenic call,"Test System: AMES SALMONELLA TYPHIMURIUM, Strain/Indicator: TA102, Metabolic Activation: RAT, LIVER, S-9, PYRAZOLE, Method: STANDARD PLATE",inactive; negative
same,mutagenic call,"Test System: AMES SALMONELLA TYPHIMURIUM, Strain/Indicator: TA1535, Metabolic Activation: HAMSTER, LIVER, S-9, AROCLOR 1254 (10%), Method: PREINCUBATION",inactive; negative
same,mutagenic call,"Test System: AMES SALMONELLA TYPHIMURIUM, Strain/Indicator: TA1535, Metabolic Activation: HAMSTER, LIVER, S-9, AROCLOR 1254, Method: STANDARD PLATE",inactive; negative
same,mutagenic call,"Test System: AMES SALMONELLA TYPHIMURIUM, Strain/Indicator: TA1535, Metabolic Activation: MOUSE, LIVER, S-9, AROCLOR 1254, Method: STANDARD PLATE",inactive; negative
same,mutagenic call,"Test System: AMES SALMONELLA TYPHIMURIUM, Strain/Indicator: TA1535, Metabolic Activation: NONE, Method: PREINCUBATION",inactive; negative
same,mutagenic call,"Test System: AMES SALMONELLA TYPHIMURIUM, Strain/Indicator: TA1535, Metabolic Activation: NONE, Method: STANDARD PLATE",inactive; negative
same,mutagenic call,"Test System: AMES SALMONELLA TYPHIMURIUM, Strain/Indicator: TA1535, Metabolic Activation: RAT, LIVER, S-9, AROCLOR 1254 (10%), Method: PREINCUBATION",inactive; negative
same,mutagenic call,"Test System: AMES SALMONELLA TYPHIMURIUM, Strain/Indicator: TA1535, Metabolic Activation: RAT, LIVER, S-9, AROCLOR 1254, Method: STANDARD PLATE",inactive; negative
same,mutagenic call,"Test System: AMES SALMONELLA TYPHIMURIUM, Strain/Indicator: TA1535, Metabolic Activation: RAT, LIVER, S-9, PYRAZOLE, Method: STANDARD PLATE",inactive; negative
same,mutagenic call,"Test System: AMES SALMONELLA TYPHIMURIUM, Strain/Indicator: TA1537, Metabolic Activation: HAMSTER, LIVER, S-9, AROCLOR 1254 (10%), Method: PREINCUBATION",inactive; negative
same,mutagenic call,"Test System: AMES SALMONELLA TYPHIMURIUM, Strain/Indicator: TA1537, Metabolic Activation: HAMSTER, LIVER, S-9, AROCLOR 1254, Method: STANDARD PLATE",inactive; negative
same,mutagenic call,"Test System: AMES SALMONELLA TYPHIMURIUM, Strain/Indicator: TA1537, Metabolic Activation: MOUSE, LIVER, S-9, AROCLOR 1254, Method: STANDARD PLATE",inactive; negative
same,mutagenic call,"Test System: AMES SALMONELLA TYPHIMURIUM, Strain/Indicator: TA1537, Metabolic Activation: NONE, Method: PREINCUBATION",inactive; negative
same,mutagenic call,"Test System: AMES SALMONELLA TYPHIMURIUM, Strain/Indicator: TA1537, Metabolic Activation: NONE, Method: STANDARD PLATE",inactive; negative
same,mutagenic call,"Test System: AMES SALMONELLA TYPHIMURIUM, Strain/Indicator: TA1537, Metabolic Activation: RAT, LIVER, S-9, AROCLOR 1254 (10%), Method: PREINCUBATION",inactive; negative
same,mutagenic call,"Test System: AMES SALMONELLA TYPHIMURIUM, Strain/Indicator: TA1537, Metabolic Activation: RAT, LIVER, S-9, AROCLOR 1254, Method: STANDARD PLATE",inactive; negative
same,mutagenic call,"Test System: AMES SALMONELLA TYPHIMURIUM, Strain/Indicator: TA1537, Metabolic Activation: RAT, LIVER, S-9, PYRAZOLE, Method: STANDARD PLATE",inactive; negative
same,mutagenic call,"Test System: AMES SALMONELLA TYPHIMURIUM, Strain/Indicator: TA1538, Metabolic Activation: HAMSTER, LIVER, S-9, AROCLOR 1254, Method: STANDARD PLATE",inactive; negative
same,mutagenic call,"Test System: AMES SALMONELLA TYPHIMURIUM, Strain/Indicator: TA1538, Metabolic Activation: MOUSE, LIVER, S-9, AROCLOR 1254, Method: STANDARD PLATE",inactive; negative
same,mutagenic call,"Test System: AMES SALMONELLA TYPHIMURIUM, Strain/Indicator: TA1538, Metabolic Activation: NONE, Method: STANDARD PLATE",inactive; negative
same,mutagenic call,"Test System: AMES SALMONELLA TYPHIMURIUM, Strain/Indicator: TA1538, Metabolic Activation: RAT, LIVER, S-9, AROCLOR 1254, Method: STANDARD PLATE",inactive; negative
same,mutagenic call,"Test System: TEST SALMONELLA TYPHIMURIUM, Strain/Indicator: TA1537, Metabolic Activation: RAT, LIVER, S-9, AROCLOR 1254, Method: STANDARD PLATE",inactive; negative
